According to ChEMBL document CHEMBL1124530, “Dimethylsulfonium analogues of the muscarinic agent McN-A-343: [4-[[N-(3- or 4-halophenyl)carbamoyl]oxy]-2-butynyl] dimethylsulfonium perchlorates” (1989):
Activity calls are given as the source filed them.

Assays:
[1] = molecular target: T1, Muscarinic acetylcholine receptor (Homo sapiens) (UniProt P20309+P08173+P11229+P08172+P08912); test: Tested in vitro for agonistic activity of compound towards muscarinic receptor in the concentration range of 1xe-6 to 1xe-4 M of guinea pig ileum; Responce varied in the range 17- 40%; assay type: functional, tissue-based; settings: Cavia porcellus, filed as partial agonist, target entry is the homologue from another species
[2] = Equipotent molar ratio relative to carbachol for nicotininc activity in frog was determined; assay type: functional
Rattus norvegicus [3] = test: Ganglionic muscarinic activity was determined by the changes in mean arterial blood pressure of the pithed rat treated with to produce a half-maximal pressure response up i.v. administration; assay type: functional; settings: iv
Rattus norvegicus [4] = test: Ganglionic muscarinic activity was determined by the changes in mean arterial blood pressure of the pithed rat treated with to produce a half-maximal pressure response up i.v. administration; Inactive when assayed a dose range of 1-10 umol/Kg; assay type: functional, organism-based
[5] = molecular target: T1, Muscarinic acetylcholine receptor (Homo sapiens); test: Tested in vitro for agonistic activity of compound towards muscarinic receptor in the concentration range of 1xe-6 to 1xe-4 M of guinea pig ileum; Inactive; assay type: functional, tissue-based; settings: Cavia porcellus, target entry is the homologue from another species

Max respose [5] | Compound | Max respose [1] | Ratio [2] | ED50 (Rattus norvegicus [3]) [µmol/kg] | ED50 (Rattus norvegicus [4])
 | C[N+](C)(C)CC#CCOC(=O)Nc1ccc(Br)cc1 | Partial agonist | 3.7 | 0.22 | 
 | CN(C)CC#CCOC(=O)Nc1ccc(Br)cc1 |  |  |  | Inactive when assayed a dose range of 1-10 umol/Kg
inactive | C[S+](C)CC#CCOC(=O)Nc1cccc(Br)c1.[O-][Cl+3]([O-])([O-])[O-] |  |  | 1.47 | 
 | C[N+](C)(C)CC#CCOC(=O)Nc1cccc(Br)c1 | Partial agonist | 4 | 0.7 | 
 | CN(C)CC#CCOC(=O)Nc1cccc(Br)c1 |  |  |  | Inactive when assayed a dose range of 1-10 umol/Kg
inactive | C[S+](C)CC#CCOC(=O)Nc1ccc(Br)cc1.[O-][Cl+3]([O-])([O-])[O-] |  |  | 1.56 | 
inactive | C[S+](C)CC#CCOC(=O)Nc1ccc(Cl)cc1.[O-][Cl+3]([O-])([O-])[O-] |  |  | 1.52 | 
inactive | C[S+](C)CC#CCOC(=O)Nc1cccc(Cl)c1.[O-][Cl+3]([O-])([O-])[O-] |  |  | 1.49 | 
 | C[N+](C)(C)CC#CCOC(=O)Nc1cccc(Cl)c1 |  |  | 0.59 | 
